# Where “and” joins values, the source holds several entries; their conditions need not be identical. Equal entries are not always repeated.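 In this assay, cells in 96-well plates receive the compound at five concentrations for 48 hours. Endpoints are linearly interpolated between the surrounding concentrations. GI50 is the concentration that inhibits growth by half. Definition used: TGI = concentration required for complete inhibition of growth.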
# Test system: K-562 leukemia
# Assay: NCI tumour cell line growth inhibition, 48 h
SMILES,TGI [µM],GI50
O=C(/C=C/c1ccc(Cl)c(Cl)c1)c1ccc2ccccc2c1,> 100,–
COc1ccc(-c2[nH]c3ccc(OC)cc3c2/C=C(\C#N)S(=O)(=O)c2ccccc2)cc1,–,0.475 µM
O=c1cc(NCC(O)CN2CCCC2)n(Cc2ccccc2)c(=O)n1Cc1ccccc1 (stereo not given),60.5,25.2 µM
C/C(=N\Nc1ccc(Cl)cn1)c1ccc2ccccc2n1,> 100,3.13 µM
CC1=C(/C=C/Cl)CC(Cl)C(C)(Cl)C1 (stereo not given),> 100,–
Cc1[nH]c(=O)nc2[nH][nH]c(=O)c12,> 100,–
C=C1C(=O)O[C@H]2[C@H]1CC/C(COC(=O)NCCCCNC(=O)OC/C1=C/CC[C@@]3(C)O[C@H]3[C@H]3OC(=O)C(=C)[C@@H]3CC1)=C\CC[C@@]1(C)O[C@@H]21,10.4,0.665 µM
COc1ccc(-c2nc3ccccn3c2/C=C/C(=O)c2cc(OC)c(OC)c(OC)c2)cc1OC,> 100,2.99 µM
O=C(N/N=C/c1cc(Br)ccc1O)N/N=C/c1cc(Br)ccc1O,> 100,–
CCCN(CCC)C(=O)c1c([N+](=O)[O-])cc(C(F)(F)F)cc1[N+](=O)[O-],> 100,–
COc1cc2c3c(n(CCCN)c(=O)c2cc1OC)-c1ccc(C#N)cc1C3=O,65.4,–
COc1cc2[nH]c3c(c2cc1OC)CCN[C@]31CC[C@]2(CC3c4c(cc(OC)c(O)c42)CCN3C)C[C@H]1OC (stereo not given in full),23.7,–
O=C1c2ccccc2C(=O)C1(O)c1c[nH]c2ccccc12,> 100,–
c1ccc(C2N3CCCCC3[C@@H]3c4[nH]c5ccccc5c4CCN23)nc1 (stereo not given in full),> 100,–
O=C(Nc1cc(Cl)c(Cl)cc1Cl)C(=O)C1C(=O)NC(=S)NC1=O,> 100,–
Nc1ccccc1/C(O)=C1/CCOC1=O,> 100,–
O=S(=O)(c1ccc(NC(=S)NC23CC4CC(CC(C4)C2)C3)cc1)N1CCCCC1,> 100,3.6 µM
[N-]=[N+]=C1C(=O)NN=C1c1ccccc1,> 100,–
CCOC(=O)N[C@@H]1C(CC(=O)OC)O[C@H]2OC(C)(C)O[C@H]21 (stereo not given in full),> 100,–
Cc1cc(NC(=S)SCc2ccc(F)cc2)c([N+](=O)[O-])cc1C,> 100,–
CC12OC(C(=O)C13CC3)C1C(=O)c3ccc4c(ccc5ccccc54)c3C(=O)C12 (stereo not given),> 100,47.6 µM
Cc1cc2ncnn2cc1Nc1ncc2c(n1)n(C1CCOCC1)c(=O)n2C,> 100,16 µM
COc1ccc(C(=O)c2cc(C)c(OC)c(C)c2)c(OC)c1O,> 100,0.0236 µM
CN(Cc1ccccc1)C(=O)c1ccccc1C(=O)O,> 100,–
COc1cc(Cc2nccc3cc(OC)c(OC)cc23)c(C(C)=O)cc1OC,300,37.6 µM and 194 µM
COC(=O)Nc1nc2ccc(C3(c4ccc(F)cc4)OCCO3)cc2[nH]1,> 100,0.112 µM

# Test system: KM12 colon
# Assay: NCI tumour cell line growth inhibition, 48 h
SMILES,GI50 [µM],TGI [µM]
CC1(C)C(=O)/C(=C\c2cccnc2)C[C@]2(C)[C@H]3CC[C@@H]4[C@H]5[C@H](C(=O)/C=C/c6cccnc6)CC[C@]5(C(=O)O)CC[C@@]4(C)[C@]3(C)CC[C@@H]12,1.73,3.64
COc1cc2ncnc(-n3ncc4cc(NC(=O)Nc5ccccc5)ccc43)c2cc1OC,0.207,5.27
Cn1cc(C2(C)CC(C)(C)c3c2n(C)c2ccccc32)c2ccccc21 (stereo not given),–,> 100
COc1ccc(C(=O)c2cc(OC)c(OC)c(OC)c2)cc1/C=C/C(=O)c1ccc(F)cc1,2.79,8.07
COC(=O)C(Cc1nc2ccccc2[nH]c1=O)C(NO)C(=O)Nc1c(Cl)cc([N+](=O)[O-])cc1Cl (stereo not given),–,> 100
OCC1OC(n2cnc3c2NC=NC[C@H]3O)C(Cl)C1O (stereo not given in full),–,> 100
COc1ccc(C2=C(Cl)c3cc(OC)c(OC)cc3C2Cl)cc1 (stereo not given),–,26.4
O=C(/C=C/c1ccc(Cl)c(Cl)c1)c1ccc2ccccc2c1,–,> 100
COc1ccc(-c2[nH]c3ccc(OC)cc3c2/C=C(\C#N)S(=O)(=O)c2ccccc2)cc1,0.653,7.69
O=c1cc(NCC(O)CN2CCCC2)n(Cc2ccccc2)c(=O)n1Cc1ccccc1 (stereo not given),18.5,36.5
C/C(=N\Nc1ccc(Cl)cn1)c1ccc2ccccc2n1,3.15,> 100
CC1=C(/C=C/Cl)CC(Cl)C(C)(Cl)C1 (stereo not given),–,> 100
COc1c2c(cc3c1OCO3)[C@]13C=C[C@H](OC)C[C@H]1N(C2)CC3O (stereo not given in full),–,> 100

# — PubChem BioAssay (NCI)
